# Results from patent publication US20020137929A1, “1 - (3-heterocyclylphenyl) isothiourea, -isourea, -guanidine and -amidine herbicidal agents” (Intellectual Property Department, BASF Aktiengesellschaft, priority 1998, published 2002).
# Key:
# ZEAMX (Corn, Field) [1] = experiment: Postemergence herbicidal evaluation; type: in vivo, Zea mays; conditions: postemergence
# In short: (§1)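 ~2-wk seedlings; postemergence spray, 40 psi; vehicle 1:1 acetone:water + 0.5% Tween 20; rate ≈0.0156–0.500 kg/ha; greenhouse hold; scored 4–5 wk after treatment, 0–9 scale vs control; repeat tests averaged.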
# SETVI (Foxtail, Green) [2] = experiment: Preemergence herbicidal evaluation; type: in vivo, Setaria viridis; conditions: preemergence, rated 4-5 weeks after treatment, 0-9 scale
# In short: (§2)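 Visual 0-9 rating vs control (stand, vigor, malformation, size, chlorosis, overall appearance), scored 4-5 wk after spraying. Seeded soil cups were treated preemergence with compound in aqueous acetone, ~0.0156-0.500 kg/ha equivalent.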
# SETVI (Foxtail, Green) [3] = experiment: Postemergence herbicidal evaluation; type: in vivo, Setaria viridis; conditions: postemergence
# In short: as §1
# ECHCG (Barnyardgrass) = experiment: Preemergence herbicidal evaluation; type: in vivo, Echinochloa crus-galli; conditions: preemergence, rated 4-5 weeks after treatment, 0-9 scale
# In short: as §2
# [4] = system: ECHORC (Watergrass (Calif.)); experiment: Postemergence weed control under flooded paddy conditions; type: in vivo, Echinochloa oryzoides; conditions: postemergence weeds, rated 3 to 4 weeks after treatment
# In short: (§3)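 Flood-water application, about 0.0313–0.500 kg/ha a.i. in aqueous/acetone 50/50 v/v; water depth 1.5–3 cm throughout. Weeds 3–5 cm, rice 1.5–2.5 leaf. Greenhouse; 0–9 visual rating vs control at 3–4 wk.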
# CYPIR (Rice Flatsedge) [5] = experiment: as above; type: in vivo, Cyperus iria; conditions: postemergence weeds, rated 3 to 4 weeks after treatment
# In short: as §3
# CYPIR (Rice Flatsedge) [6] = experiment: Preemergence weed control under flooded paddy conditions; type: in vivo, Cyperus iria; conditions: rated 3-4 weeks after treatment
# In short: (§4)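 Ratings on a 0-9 visual scale cover stand, vigor, malformation, size, chlorosis and overall appearance relative to a control, taken three to four weeks post-treatment. Application was into flood water over freshly sown silt loam at roughly 0.0313 to 0.500 kg/ha.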
# [7] = system: SAGPY (Arrowhead (Pygmaea)); experiment: Postemergence weed control under flooded paddy conditions; type: in vivo, Sagittaria pygmaea; conditions: postemergence weeds, rated 3 to 4 weeks after treatment
# In short: as §3
# CYPSE (Flatsedge) [8] = experiment: Preemergence weed control under flooded paddy conditions; type: in vivo, Cyperus serotinus; conditions: rated 3-4 weeks after treatment
# In short: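 First, seeds or propagules go into the top 0.5 cm of silt loam; next, water is held 1.5 to 3 cm over the soil; then compound (50/50 acetone/water) is pipetted into it at about 0.0313 to 0.500 kg/ha; finally plants are rated visually 0-9 after three to four weeks.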
# ZEAMX (Corn, Field) [9] = experiment: Preemergence herbicidal evaluation; type: in vivo, Zea mays; conditions: preemergence, rated 4-5 weeks after treatment, 0-9 scale
# In short: as §2
# [10] = system: ECHORC (Watergrass (Calif.)); experiment: Preemergence weed control under flooded paddy conditions; type: in vivo, Echinochloa oryzoides; conditions: rated 3-4 weeks after treatment
# In short: as §4
# CYPSE (Flatsedge) [11] = experiment: Postemergence weed control under flooded paddy conditions; type: in vivo, Cyperus serotinus; conditions: postemergence weeds, rated 3 to 4 weeks after treatment
# In short: as §3
# ORYSAT (Rice, Tebonnet) = experiment: Postemergence herbicidal evaluation; type: in vivo, Oryza sativa, (L.) Tebonnet; conditions: postemergence
# In short: as §1
# [12] = system: TRZAWR (Wheat, Winter, cv Riband); experiment: Preemergence herbicidal evaluation; type: in vivo, Triticum aestivum; conditions: preemergence, rated 4-5 weeks after treatment, 0-9 scale
# In short: as §2
compound,measurement,setting,value
"CCOC(=O)CN1C(=O)C(CC(=O)NS(=O)(=O)CC)SC1=Nc1cc(-n2c(=O)cc(C(F)(F)F)n(C)c2=O)c(F)cc1Cl (stereo not drawn) [Compound 103, Ethyl 2-{{2-chloro-5-[3,6-dihydro-3-methyl-2,6-dioxo-4-(trifluoromethyl)-1(2H)-pyrimidinyl]-4-fluorophenyl}imino}-5-{[(ethylsulfonyl)carbamoyl]-methyl}-4-oxo-3-thiazolidineacetate]",herbicidal rating ZEAMX,"ZEAMX (Corn, Field) [1]; rate 0.0156 kg/ha",5.5
same,herbicidal rating ZEAMX,"ZEAMX (Corn, Field) [1]; rate 0.0313 kg/ha",7.5
same,herbicidal rating ZEAMX,"ZEAMX (Corn, Field) [1]; rate 0.0625 kg/ha",8.5
same,herbicidal rating ZEAMX,"ZEAMX (Corn, Field) [1]; rate 0.1250 kg/ha",8.5
same,SETVI rating,"SETVI (Foxtail, Green) [2]; 0.0313 kg/ha",0.0
same,SETVI rating,"SETVI (Foxtail, Green) [2]; 0.0625 kg/ha",0.0
same,SETVI rating,"SETVI (Foxtail, Green) [2]; 0.1250 kg/ha",3.0
same,SETVI rating,"SETVI (Foxtail, Green) [2]; 0.2500 kg/ha",3.0
same,SETVI rating,"SETVI (Foxtail, Green) [2]; 0.5000 kg/ha",9.0
same,herbicidal rating SETVI,"SETVI (Foxtail, Green) [3]; rate 0.0156 kg/ha",4.0
same,herbicidal rating SETVI,"SETVI (Foxtail, Green) [3]; rate 0.0313 kg/ha",5.0
same,herbicidal rating SETVI,"SETVI (Foxtail, Green) [3]; rate 0.0625 kg/ha",9.0
same,herbicidal rating SETVI,"SETVI (Foxtail, Green) [3]; rate 0.1250 kg/ha",9.0
same,ECHCG rating,ECHCG (Barnyardgrass); 0.0313 kg/ha,0.0
same,ECHCG rating,ECHCG (Barnyardgrass); 0.0625 kg/ha,0.0
same,ECHCG rating,ECHCG (Barnyardgrass); 0.1250 kg/ha,0.0
same,ECHCG rating,ECHCG (Barnyardgrass); 0.2500 kg/ha,0.0
same,ECHCG rating,ECHCG (Barnyardgrass); 0.5000 kg/ha,2.0
same,Herbicidal rating ECHORC,[4]; Rate 0.0313 kg/ha,4.0
same,Herbicidal rating ECHORC,[4]; Rate 0.0625 kg/ha,4.0
same,Herbicidal rating ECHORC,[4]; Rate 0.1250 kg/ha,5.0
same,Herbicidal rating ECHORC,[4]; Rate 0.2500 kg/ha,6.0
same,Herbicidal rating CYPIR,CYPIR (Rice Flatsedge) [5]; Rate 0.0313 kg/ha,4.0
same,Herbicidal rating CYPIR,CYPIR (Rice Flatsedge) [5]; Rate 0.0625 kg/ha,6.0
same,Herbicidal rating CYPIR,CYPIR (Rice Flatsedge) [5]; Rate 0.1250 kg/ha,9.0
same,Herbicidal rating CYPIR,CYPIR (Rice Flatsedge) [5]; Rate 0.2500 kg/ha,9.0
same,CYPIR herbicidal effect rating,CYPIR (Rice Flatsedge) [6]; 0.0313 kg/ha,4.0
same,CYPIR herbicidal effect rating,CYPIR (Rice Flatsedge) [6]; 0.0625 kg/ha,6.0
same,CYPIR herbicidal effect rating,CYPIR (Rice Flatsedge) [6]; 0.1250 kg/ha,9.0
same,CYPIR herbicidal effect rating,CYPIR (Rice Flatsedge) [6]; 0.2500 kg/ha,9.0
same,Herbicidal rating SAGPY,[7]; Rate 0.0313 kg/ha,7.0
same,Herbicidal rating SAGPY,[7]; Rate 0.0625 kg/ha,9.0
same,Herbicidal rating SAGPY,[7]; Rate 0.1250 kg/ha,9.0
same,Herbicidal rating SAGPY,[7]; Rate 0.2500 kg/ha,9.0
same,CYPSE herbicidal effect rating,CYPSE (Flatsedge) [8]; 0.0313 kg/ha,5.0
same,CYPSE herbicidal effect rating,CYPSE (Flatsedge) [8]; 0.0625 kg/ha,5.0
same,CYPSE herbicidal effect rating,CYPSE (Flatsedge) [8]; 0.1250 kg/ha,6.0
same,CYPSE herbicidal effect rating,CYPSE (Flatsedge) [8]; 0.2500 kg/ha,6.0
same,ZEAMX rating,"ZEAMX (Corn, Field) [9]; 0.0313 kg/ha",0.0
same,ZEAMX rating,"ZEAMX (Corn, Field) [9]; 0.0625 kg/ha",0.0
same,ZEAMX rating,"ZEAMX (Corn, Field) [9]; 0.1250 kg/ha",0.0
same,ZEAMX rating,"ZEAMX (Corn, Field) [9]; 0.2500 kg/ha",0.0
same,ZEAMX rating,"ZEAMX (Corn, Field) [9]; 0.5000 kg/ha",1.0
same,ECHORC herbicidal effect rating,[10]; 0.0313 kg/ha,4.0
same,ECHORC herbicidal effect rating,[10]; 0.0625 kg/ha,4.0
same,ECHORC herbicidal effect rating,[10]; 0.1250 kg/ha,5.0
same,ECHORC herbicidal effect rating,[10]; 0.2500 kg/ha,6.0
same,Herbicidal rating CYPSE,CYPSE (Flatsedge) [11]; Rate 0.0313 kg/ha,5.0
same,Herbicidal rating CYPSE,CYPSE (Flatsedge) [11]; Rate 0.0625 kg/ha,5.0
same,Herbicidal rating CYPSE,CYPSE (Flatsedge) [11]; Rate 0.1250 kg/ha,6.0
same,Herbicidal rating CYPSE,CYPSE (Flatsedge) [11]; Rate 0.2500 kg/ha,6.0
same,herbicidal rating ORYSAT,"ORYSAT (Rice, Tebonnet); rate 0.0156 kg/ha",1.5
same,herbicidal rating ORYSAT,"ORYSAT (Rice, Tebonnet); rate 0.0313 kg/ha",2.0
same,herbicidal rating ORYSAT,"ORYSAT (Rice, Tebonnet); rate 0.0625 kg/ha",2.5
same,herbicidal rating ORYSAT,"ORYSAT (Rice, Tebonnet); rate 0.1250 kg/ha",3.5
same,TRZAWR rating,[12]; 0.0313 kg/ha,0.0
same,TRZAWR rating,[12]; 0.0625 kg/ha,0.0
same,TRZAWR rating,[12]; 0.1250 kg/ha,0.0
same,TRZAWR rating,[12]; 0.2500 kg/ha,0.0
same,TRZAWR rating,[12]; 0.5000 kg/ha,1.0
